# Laboratory results published in PubChem BioAssay (NCI).
#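 Test compounds were applied to cells in 96-well plates for 48 hours at 5 doses. TGI: concentration producing complete growth inhibition.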 Where a SMILES comes first, the peptide text is derived from it. The star is where a group is joined. Cbz = O=C(OCc1ccccc1)*
# Test system: 786-0 renal
# Experiment: NCI tumour cell line growth inhibition, 48 h
row,SMILES,TGI [µM]
1,CN(C)CCCC12CCCCC1=Nc1ccccc12 (centres undefined),> 100
2,CCOC(=O)CC[C@H](NC(=O)[C@H](N)Cc1ccc(N(CCCl)CCCl)cc1)C(=O)OCC,23.5
3,CC#CCOC(=O)c1ccccc1OC(C)=O,> 100
4,CN=C(N=Nc1c(O)[nH]c2ccccc12)SCC(=O)c1ccc(Br)cc1,16
5,O=C1CCCC1CN1CCCC1 (centres undefined),14.9
6,CN(CC(=O)O)c1ncc2c(n1)CCCC2,> 100
7,COc1cc(NS(C)(=O)=O)ccc1Nc1c2ccccc2nc2c1[nH]c1ccc(NC3OC(CO)C(O)C(O)C3O)cc12 (centres undefined),0.339
8,O=C(O)CCC(NC(=O)OCc1ccccc1)C(=O)NC(Cc1cnc[nH]1)C(=O)O (stereo not drawn) (Cbz-Glu-His-OH; configuration not given here),> 100
9,O=[N+]([O-])/C(C(Cl)=C(Cl)Cl)=C(/Cl)Sc1ccccc1,2.62
10,Clc1ccc(C2C3COc4ccccc4C3=NN2c2ccccc2)cc1 (centres undefined),> 96.4
11,CCC(C)OC(=O)/C(Br)=C1/OC(=O)c2ccccc2-c2ccccc21 (centres undefined),> 100
12,NC(=O)C(C(N)=O)=C(O)C(=O)/C=C(\O)c1ccccc1,> 100
13,Cc1cc(S(=O)(=O)Nc2n[nH]c(N)n2)c(SCC(=O)O)cc1Cl,> 10
14,O=C(O)C(NCc1ccccc1)C(NCc1ccccc1)C(=O)O (centres undefined),> 100
15,CC(=O)c1[nH]c(NCc2ccccc2)c(C(=S)Nc2ccccc2)c1N,32.5
16,CC1CCC(=O)C(C(=O)CC2CC(=O)N(C)C(=O)C2)C1 (centres undefined),> 100
17,COc1ccc(-[n+]2nc(S(=O)(=O)O)c(/C=C/c3ccc(N(C)C)cc3)cc2C#N)cc1,> 100

# Test system: A498 renal
# Experiment: NCI tumour cell line growth inhibition, 48 h
row,SMILES,TGI [µM]
1,CN(C)CCCC12CCCCC1=Nc1ccccc12 (centres undefined),> 100
2,CCOC(=O)CC[C@H](NC(=O)[C@H](N)Cc1ccc(N(CCCl)CCCl)cc1)C(=O)OCC,> 100
3,CC#CCOC(=O)c1ccccc1OC(C)=O,> 100
4,CN=C(N=Nc1c(O)[nH]c2ccccc12)SCC(=O)c1ccc(Br)cc1,37.2
5,O=C1CCCC1CN1CCCC1 (centres undefined),45.1
6,CN(CC(=O)O)c1ncc2c(n1)CCCC2,> 100
7,COc1cc(NS(C)(=O)=O)ccc1Nc1c2ccccc2nc2c1[nH]c1ccc(NC3OC(CO)C(O)C(O)C3O)cc12 (centres undefined),0.881
8,O=C(O)CCC(NC(=O)OCc1ccccc1)C(=O)NC(Cc1cnc[nH]1)C(=O)O (stereo not drawn) (Cbz-Glu-His-OH; configuration not given here),> 100
9,O=[N+]([O-])/C(C(Cl)=C(Cl)Cl)=C(/Cl)Sc1ccccc1,4.19
10,Clc1ccc(C2C3COc4ccccc4C3=NN2c2ccccc2)cc1 (centres undefined),> 100
11,CCC(C)OC(=O)/C(Br)=C1/OC(=O)c2ccccc2-c2ccccc21 (centres undefined),> 100
12,NC(=O)C(C(N)=O)=C(O)C(=O)/C=C(\O)c1ccccc1,> 100
13,Cc1cc(S(=O)(=O)Nc2n[nH]c(N)n2)c(SCC(=O)O)cc1Cl,> 10
14,O=C(O)C(NCc1ccccc1)C(NCc1ccccc1)C(=O)O (centres undefined),> 100
15,CC(=O)c1[nH]c(NCc2ccccc2)c(C(=S)Nc2ccccc2)c1N,53.7
16,CC1CCC(=O)C(C(=O)CC2CC(=O)N(C)C(=O)C2)C1 (centres undefined),> 100
17,COc1ccc(-[n+]2nc(S(=O)(=O)O)c(/C=C/c3ccc(N(C)C)cc3)cc2C#N)cc1,> 100

# Test system: CCRF-CEM leukemia
# Experiment: NCI tumour cell line growth inhibition, 48 h
row,SMILES,TGI [µM]
1,CN(C)CCCC12CCCCC1=Nc1ccccc12 (centres undefined),> 100
2,CCOC(=O)CC[C@H](NC(=O)[C@H](N)Cc1ccc(N(CCCl)CCCl)cc1)C(=O)OCC,> 49.6
3,CC#CCOC(=O)c1ccccc1OC(C)=O,> 100
4,CN=C(N=Nc1c(O)[nH]c2ccccc12)SCC(=O)c1ccc(Br)cc1,30.8
5,O=C1CCCC1CN1CCCC1 (centres undefined),1.16
6,CN(CC(=O)O)c1ncc2c(n1)CCCC2,> 100
7,COc1cc(NS(C)(=O)=O)ccc1Nc1c2ccccc2nc2c1[nH]c1ccc(NC3OC(CO)C(O)C(O)C3O)cc12 (centres undefined),3.12
8,O=C(O)CCC(NC(=O)OCc1ccccc1)C(=O)NC(Cc1cnc[nH]1)C(=O)O (stereo not drawn) (Cbz-Glu-His-OH; configuration not given here),> 100
9,O=[N+]([O-])/C(C(Cl)=C(Cl)Cl)=C(/Cl)Sc1ccccc1,0.435
10,Clc1ccc(C2C3COc4ccccc4C3=NN2c2ccccc2)cc1 (centres undefined),> 37.7
11,CCC(C)OC(=O)/C(Br)=C1/OC(=O)c2ccccc2-c2ccccc21 (centres undefined),52
12,NC(=O)C(C(N)=O)=C(O)C(=O)/C=C(\O)c1ccccc1,52.5
13,Cc1cc(S(=O)(=O)Nc2n[nH]c(N)n2)c(SCC(=O)O)cc1Cl,> 10
14,O=C(O)C(NCc1ccccc1)C(NCc1ccccc1)C(=O)O (centres undefined),> 100
15,CC(=O)c1[nH]c(NCc2ccccc2)c(C(=S)Nc2ccccc2)c1N,> 100
16,CC1CCC(=O)C(C(=O)CC2CC(=O)N(C)C(=O)C2)C1 (centres undefined),> 100
17,COc1ccc(-[n+]2nc(S(=O)(=O)O)c(/C=C/c3ccc(N(C)C)cc3)cc2C#N)cc1,> 100

# Test system: DU-145 prostate
# Experiment: NCI tumour cell line growth inhibition, 48 h
row,SMILES,TGI [µM]
1,CN(C)CCCC12CCCCC1=Nc1ccccc12 (centres undefined),> 100
2,CCOC(=O)CC[C@H](NC(=O)[C@H](N)Cc1ccc(N(CCCl)CCCl)cc1)C(=O)OCC,43.9
3,CC#CCOC(=O)c1ccccc1OC(C)=O,> 100
4,CN=C(N=Nc1c(O)[nH]c2ccccc12)SCC(=O)c1ccc(Br)cc1,30.5
5,O=C1CCCC1CN1CCCC1 (centres undefined),> 66.4
6,CN(CC(=O)O)c1ncc2c(n1)CCCC2,> 100
7,COc1cc(NS(C)(=O)=O)ccc1Nc1c2ccccc2nc2c1[nH]c1ccc(NC3OC(CO)C(O)C(O)C3O)cc12 (centres undefined),0.245
8,O=C(O)CCC(NC(=O)OCc1ccccc1)C(=O)NC(Cc1cnc[nH]1)C(=O)O (stereo not drawn) (Cbz-Glu-His-OH; configuration not given here),> 100
9,O=[N+]([O-])/C(C(Cl)=C(Cl)Cl)=C(/Cl)Sc1ccccc1,11.2
10,Clc1ccc(C2C3COc4ccccc4C3=NN2c2ccccc2)cc1 (centres undefined),> 100
11,CCC(C)OC(=O)/C(Br)=C1/OC(=O)c2ccccc2-c2ccccc21 (centres undefined),> 100
12,NC(=O)C(C(N)=O)=C(O)C(=O)/C=C(\O)c1ccccc1,> 100
13,Cc1cc(S(=O)(=O)Nc2n[nH]c(N)n2)c(SCC(=O)O)cc1Cl,> 10
14,O=C(O)C(NCc1ccccc1)C(NCc1ccccc1)C(=O)O (centres undefined),> 100
15,CC(=O)c1[nH]c(NCc2ccccc2)c(C(=S)Nc2ccccc2)c1N,> 100
16,CC1CCC(=O)C(C(=O)CC2CC(=O)N(C)C(=O)C2)C1 (centres undefined),> 100
17,COc1ccc(-[n+]2nc(S(=O)(=O)O)c(/C=C/c3ccc(N(C)C)cc3)cc2C#N)cc1,> 100

# Test system: EKVX NSCLC
# Experiment: NCI tumour cell line growth inhibition, 48 h
row,SMILES,TGI [µM]
1,CN(C)CCCC12CCCCC1=Nc1ccccc12 (centres undefined),> 100
2,CCOC(=O)CC[C@H](NC(=O)[C@H](N)Cc1ccc(N(CCCl)CCCl)cc1)C(=O)OCC,> 67.9
3,CC#CCOC(=O)c1ccccc1OC(C)=O,> 100
4,CN=C(N=Nc1c(O)[nH]c2ccccc12)SCC(=O)c1ccc(Br)cc1,> 62.8
5,O=C1CCCC1CN1CCCC1 (centres undefined),42.8
6,CN(CC(=O)O)c1ncc2c(n1)CCCC2,> 100
7,COc1cc(NS(C)(=O)=O)ccc1Nc1c2ccccc2nc2c1[nH]c1ccc(NC3OC(CO)C(O)C(O)C3O)cc12 (centres undefined),4.98
8,O=C(O)CCC(NC(=O)OCc1ccccc1)C(=O)NC(Cc1cnc[nH]1)C(=O)O (stereo not drawn) (Cbz-Glu-His-OH; configuration not given here),> 100
9,O=[N+]([O-])/C(C(Cl)=C(Cl)Cl)=C(/Cl)Sc1ccccc1,33.4
10,Clc1ccc(C2C3COc4ccccc4C3=NN2c2ccccc2)cc1 (centres undefined),> 100
11,CCC(C)OC(=O)/C(Br)=C1/OC(=O)c2ccccc2-c2ccccc21 (centres undefined),> 100
12,NC(=O)C(C(N)=O)=C(O)C(=O)/C=C(\O)c1ccccc1,> 100
13,Cc1cc(S(=O)(=O)Nc2n[nH]c(N)n2)c(SCC(=O)O)cc1Cl,> 10
14,O=C(O)C(NCc1ccccc1)C(NCc1ccccc1)C(=O)O (centres undefined),> 100
15,CC(=O)c1[nH]c(NCc2ccccc2)c(C(=S)Nc2ccccc2)c1N,> 100
16,CC1CCC(=O)C(C(=O)CC2CC(=O)N(C)C(=O)C2)C1 (centres undefined),> 100
17,COc1ccc(-[n+]2nc(S(=O)(=O)O)c(/C=C/c3ccc(N(C)C)cc3)cc2C#N)cc1,> 100

# Test system: HCT-116 colon
# Experiment: NCI tumour cell line growth inhibition, 48 h
row,SMILES,TGI [µM]
1,CN(C)CCCC12CCCCC1=Nc1ccccc12 (centres undefined),> 100
2,CCOC(=O)CC[C@H](NC(=O)[C@H](N)Cc1ccc(N(CCCl)CCCl)cc1)C(=O)OCC,> 68
3,CC#CCOC(=O)c1ccccc1OC(C)=O,> 100
4,CN=C(N=Nc1c(O)[nH]c2ccccc12)SCC(=O)c1ccc(Br)cc1,19.7
5,O=C1CCCC1CN1CCCC1 (centres undefined),11.7
6,CN(CC(=O)O)c1ncc2c(n1)CCCC2,> 100
7,COc1cc(NS(C)(=O)=O)ccc1Nc1c2ccccc2nc2c1[nH]c1ccc(NC3OC(CO)C(O)C(O)C3O)cc12 (centres undefined),1.43
8,O=C(O)CCC(NC(=O)OCc1ccccc1)C(=O)NC(Cc1cnc[nH]1)C(=O)O (stereo not drawn) (Cbz-Glu-His-OH; configuration not given here),> 100
9,O=[N+]([O-])/C(C(Cl)=C(Cl)Cl)=C(/Cl)Sc1ccccc1,2.58
10,Clc1ccc(C2C3COc4ccccc4C3=NN2c2ccccc2)cc1 (centres undefined),> 100
11,CCC(C)OC(=O)/C(Br)=C1/OC(=O)c2ccccc2-c2ccccc21 (centres undefined),36.6
12,NC(=O)C(C(N)=O)=C(O)C(=O)/C=C(\O)c1ccccc1,> 100
13,Cc1cc(S(=O)(=O)Nc2n[nH]c(N)n2)c(SCC(=O)O)cc1Cl,> 10
14,O=C(O)C(NCc1ccccc1)C(NCc1ccccc1)C(=O)O (centres undefined),> 100
15,CC(=O)c1[nH]c(NCc2ccccc2)c(C(=S)Nc2ccccc2)c1N,34.1
16,CC1CCC(=O)C(C(=O)CC2CC(=O)N(C)C(=O)C2)C1 (centres undefined),> 100
17,COc1ccc(-[n+]2nc(S(=O)(=O)O)c(/C=C/c3ccc(N(C)C)cc3)cc2C#N)cc1,> 100

# Test system: HCT-15 colon
# Experiment: NCI tumour cell line growth inhibition, 48 h
row,SMILES,TGI [µM]
1,CN(C)CCCC12CCCCC1=Nc1ccccc12 (centres undefined),> 100
2,CCOC(=O)CC[C@H](NC(=O)[C@H](N)Cc1ccc(N(CCCl)CCCl)cc1)C(=O)OCC,> 55.7
3,CC#CCOC(=O)c1ccccc1OC(C)=O,> 100
4,CN=C(N=Nc1c(O)[nH]c2ccccc12)SCC(=O)c1ccc(Br)cc1,> 89.3
5,O=C1CCCC1CN1CCCC1 (centres undefined),5.89
6,CN(CC(=O)O)c1ncc2c(n1)CCCC2,> 100
7,COc1cc(NS(C)(=O)=O)ccc1Nc1c2ccccc2nc2c1[nH]c1ccc(NC3OC(CO)C(O)C(O)C3O)cc12 (centres undefined),2.14
8,O=C(O)CCC(NC(=O)OCc1ccccc1)C(=O)NC(Cc1cnc[nH]1)C(=O)O (stereo not drawn) (Cbz-Glu-His-OH; configuration not given here),> 100
9,O=[N+]([O-])/C(C(Cl)=C(Cl)Cl)=C(/Cl)Sc1ccccc1,4.85
10,Clc1ccc(C2C3COc4ccccc4C3=NN2c2ccccc2)cc1 (centres undefined),> 100
11,CCC(C)OC(=O)/C(Br)=C1/OC(=O)c2ccccc2-c2ccccc21 (centres undefined),38.5
12,NC(=O)C(C(N)=O)=C(O)C(=O)/C=C(\O)c1ccccc1,> 100
13,Cc1cc(S(=O)(=O)Nc2n[nH]c(N)n2)c(SCC(=O)O)cc1Cl,> 10
14,O=C(O)C(NCc1ccccc1)C(NCc1ccccc1)C(=O)O (centres undefined),> 100
15,CC(=O)c1[nH]c(NCc2ccccc2)c(C(=S)Nc2ccccc2)c1N,39.9
16,CC1CCC(=O)C(C(=O)CC2CC(=O)N(C)C(=O)C2)C1 (centres undefined),> 100
17,COc1ccc(-[n+]2nc(S(=O)(=O)O)c(/C=C/c3ccc(N(C)C)cc3)cc2C#N)cc1,> 100
